From patent publication US20150209315A1 (Cumberland Pharmaceuticals, priority 2009, published 2015)

Experiments:
[1] = system: post-operative adult patients; test: Example 1: patient self-assessment of pain, VAS at rest; type: in vivo, human; conditions: 800 mg
Method: Pain was measured by the patient's self-assessment using a Visual Analog Scale (VAS) from 0-10 with 0 being no pain and 10 being intense pain. This was measured both at rest and with movement. […] […] To account for the missing pain assessments, two missing value approaches as described in the statistical analysis plan were used to impute values. To determine the difference in overall pain at differing time-points, the area under the VAS pain curve during the first 24 hours, between 6 and 24 hours and between 12 and 24 hours were analyzed.

[2] = system: patients undergoing orthopedic surgical procedures; test: Example 3: additional measurements of efficacy; type: in vivo, human; conditions: 800 mg
From the text: Additional measurements of efficacy were incidence of treatment failure, time to GI motility, time to resumption of ambulation, time to resumption of liquid intake, time to resumption of solid diet, and length of hospital stay.

patients = test: Safety in all clinical studies conducted to date; type: in vivo, human; conditions: for postoperative GI bleeding or renal complications: up to 5 days of treatment, abdominal and orthopedic surgical procedures
[3] = system: patients with fever and severe sepsis; conditions: cited from earlier work
[4] = system: patients undergoing orthopedic surgical procedures; test: Example 3: pain at rest measured with VAS; conditions: 800 mg, immediately post-surgery

## CC(C)Cc1ccc(C(C)C(=O)O)cc1 (stereo not drawn) [Ibuprofen, 2-(4-isobutylphenyl) propionic acid]
[1]; EEP, 2-Hour
  VAS Score measured at Rest, % Reduction vs Placebo: −1.7%
[1]; EEP, 3-Hour
  VAS Score measured at Rest (median): 5.0
  VAS Score measured at Rest, % Reduction vs Placebo: 0.0%
[1]; EEP, 6-Hour
  VAS Score measured at Rest (median): 5.0
  VAS Score measured at Rest, % Reduction vs Placebo: −25.0%
[1]; EEP, 9-Hour
  VAS Score measured at Rest (median): 3.0
[1]; EEP, 12-Hour
  VAS Score measured at Rest (median): 3.0
  VAS Score measured at Rest, % Reduction vs Placebo: 0.0%
[1]; EEP, 15-Hour
  VAS Score measured at Rest (median): 2.8
  VAS Score measured at Rest, % Reduction vs Placebo: 6.7%
[1]; EEP, 18-Hour
  VAS Score measured at Rest (median): 2.0
  VAS Score measured at Rest, % Reduction vs Placebo: 33.3%
[1]; EEP, 21-Hour
  VAS Score measured at Rest (median): 2.0
  VAS Score measured at Rest, % Reduction vs Placebo: 33.3%
[1]; EEP, 24-Hour
  VAS Score measured at Rest (median): 2.0
  VAS Score measured at Rest, % Reduction vs Placebo: 33.3%
[1]; EEP, 27-Hour
  VAS Score measured at Rest (median): 2.3
[1]; EEP, 30-Hour
  VAS Score measured at Rest (median): 2.4
  VAS Score measured at Rest, % Reduction vs Placebo: 14.3%
[1]; EEP, 33-Hour
  VAS Score measured at Rest (median): 2.3
  VAS Score measured at Rest, % Reduction vs Placebo: 28.1%
[1]; EEP, 36-Hour
  VAS Score measured at Rest (median): 2.2
  VAS Score measured at Rest, % Reduction vs Placebo: 15.4%
[1]; EEP, 39-Hour
  VAS Score measured at Rest (median): 2.7
  VAS Score measured at Rest, % Reduction vs Placebo: −50.0%
[1]; EEP, 42-Hour
  VAS Score measured at Rest (median): 1.8
  VAS Score measured at Rest, % Reduction vs Placebo: 10.0%
[1]; EEP, 45-Hour
  VAS Score measured at Rest (median): 2.0
  VAS Score measured at Rest, % Reduction vs Placebo: 4.8%
[1]; EEP, 48-Hour
  VAS Score measured at Rest (median): 1.1
[1]; ITT, 1-Hour
  VAS Score measured at Rest (median): 7.0
  VAS Score measured at Rest, % Reduction vs Placebo: 0.0%
[1]; ITT, 2-Hour
  VAS Score measured at Rest (median): 5.7
  VAS Score measured at Rest, % Reduction vs Placebo: 6.6%
[1]; ITT, 3-Hour
  VAS Score measured at Rest (median): 5.0
  VAS Score measured at Rest, % Reduction vs Placebo: 0.0%
[1]; ITT, 6-Hour
  VAS Score measured at Rest (median): 4.0
  VAS Score measured at Rest, % Reduction vs Placebo: 0.0%
[1]; ITT, 9-Hour
  VAS Score measured at Rest (median): 3.0
[1]; ITT, 12-Hour
  VAS Score measured at Rest (median): 2.9
  VAS Score measured at Rest, % Reduction vs Placebo: 3.3%
[1]; ITT, 15-Hour
  VAS Score measured at Rest (median): 2.6
  VAS Score measured at Rest, % Reduction vs Placebo: 21.2%
[1]; ITT, 18-Hour
  VAS Score measured at Rest (median): 2.0
  VAS Score measured at Rest, % Reduction vs Placebo: 33.3%
[1]; ITT, 21-Hour
  VAS Score measured at Rest (median): 2.0
  VAS Score measured at Rest, % Reduction vs Placebo: 42.9%
[1]; ITT, 24-Hour
  VAS Score measured at Rest (median): 2.0
  VAS Score measured at Rest, % Reduction vs Placebo: 33.3%
[1]; ITT, 27-Hour
  VAS Score measured at Rest (median): 2.2
[1]; ITT, 30-Hour
  VAS Score measured at Rest (median): 2.3
  VAS Score measured at Rest, % Reduction vs Placebo: 14.8%
[1]; ITT, 33-Hour
  VAS Score measured at Rest (median): 2.3
  VAS Score measured at Rest, % Reduction vs Placebo: 28.1%
[1]; ITT, 36-Hour
  VAS Score measured at Rest (median): 2.2
  VAS Score measured at Rest, % Reduction vs Placebo: 15.4%
[1]; ITT, 39-Hour
  VAS Score measured at Rest (median): 2.7
  VAS Score measured at Rest, % Reduction vs Placebo: −50.0%
[1]; ITT, 42-Hour
  VAS Score measured at Rest (median): 1.9
  VAS Score measured at Rest, % Reduction vs Placebo: 5.0%
[1]; ITT, 45-Hour
  VAS Score measured at Rest (median): 1.9
  VAS Score measured at Rest, % Reduction vs Placebo: 5.0%
[1]; ITT, 48-Hour
  VAS Score measured at Rest (median): 1.3
  VAS Score measured at Rest, % Reduction vs Placebo: 13.3%
[2]
  treatment failure, time to GI motility, ambulation, liquid intake, solid diet, length of hospital stay vs placebo: no significant differences between treatment groups
patients; all clinical studies conducted to date
  impact on key metabolic and hematologic parameters: no impact
patients; clinical trials, postoperative
  patients with at least one morphine side effect vs placebo: significantly fewer patients
patients; listed as IV Ibuprofen
  postoperative GI bleeding or renal complications: No postoperative GI bleeding or renal complications were seen
patients; listed as intravenous ibuprofen
  postoperative GI bleeding or renal complications: No bleeding or renal toxicity was reported
patients; vs placebo
  adverse event profile: comparable to placebo
[3]; in vivo, iv
  safety (renal function, gastrointestinal bleeding, transfusion requirements, other SAEs): safe
[3]; patients with sepsis, intravenous
  effect on fever, pulse rate and lactic acidosis: reduced fever and pulse rate and lessened lactic acidosis
[4]; AT
  decrease in the mean VAS at rest: 15.8%
[4]; efficacy evaluable
  decrease in the mean VAS at rest: 14.7%
[4]; intent-to-treat
  decrease in the mean VAS at rest: 16.5%
